In US20130172294A1, “Treatment with VB-201” (Vascular Biogenics Ltd., priority 2010, published 2013):

Tests used:
[1] = tested on: adjuvant-induced arthritis; details: in vivo animal model; cited from earlier work
[2] = tested on: Human monocytes (CD14+ cells)
Description: Human monocytes (CD14^+ cells) were isolated from whole blood of healthy donors. Following PBMC (peripheral blood mononuclear cell) separation from whole blood using Ficoll-Paque and leucosep tubes, CD14^+ cells were separated using specific CD14 micro beads (Miltenyi Biotech). Purity of the CD14^+ population was validated using specific monoclonal CD14 antibody by FACS analysis. For chemoattractant, RANTES (100 ng/ml), MIP-1α (macrophage inflammatory protein-1a; 50 ng/ml), MCP-1 (monocyte chemotactic protein-1; 50 ng/ml) or MCP-3 (50 ng/ml) were dissolved in 2% fetal bovine serum/RPMI-1640 and placed at the lower chamber of QCM™ 24-well migration assay plate (Corning-Costar). CD14+ cells were pre-incubated for 30 minutes with solvent (1% ethanol/PBS) or VB-201 at 8 μM (or different concentrations ranging between 1.7-17 μM, not shown). Migration assay was conducted by seeding 300,000 treated cells in the upper chamber, followed by incubated for 3-4 hours, after which the number of migrated cells was determined by FACS (fluorescence activated cell sorting).
VB-201 was tested in vitro as described hereinabove for possible effects on migration of human primary monocytes towards inflammatory chemokines using a trans-well assay. For a broad analysis, several chemoattractants which serve as ligands for different chemokine receptors were used. Two assays were performed in triplicates for each chemoattractant.

[3] = Safety and tolerability, food and coating study (Example 3); assay type: in vivo, human
Source text: Safety and tolerability of VB-201 was judged by evaluating the incidence of abnormal findings in the following measurements: vital signs: systolic and diastolic blood pressure, heart rate, respiratory rate, body temperature; physical examination; 12-lead electrocardiogram; laboratory tests of blood samples for: complete blood count, prothrombin time/partial thromboplastin time, LDL- and HDL-cholesterol, total cholesterol, triglycerides, glucose, blood urea nitrogen, sodium, potassium, creatinine, calcium, phosphorus, creatinine phosphokinase, lactate dehydrogenase, aspartate transaminase, alanine transaminase, γ-glutamyl transferase, alkaline phosphatase, protein, albumin, total bilirubin, total IgM and IgG antibodies, interleukin-12/23 p40, tumor necrosis factor-α, and interleukin-6, as well as routine urinalysis; and all adverse events, whether or not considered serious, and whether or not considered related to the investigational agent, according to the criteria for Good Clinical Practice. Treatment-emergent adverse events were defined as any adverse event that started on or after administration of the first dose of VB-201, and no more than 30 days after administration of the last dose, or are ongoing at the time of the first dose and worsened in severity or frequency during treatment. […]

CCCCCCCCCCCCCCCCOCC(COP(=O)([O-])OCC[N+](C)(C)C)OCCCCC(=O)O (centres unmarked) [VB-201, 1-hexadecyl-2-(4′-carboxybutyl)-glycerol-3-phosphocholine]
efficacy in adjuvant-induced arthritis [1]: effective | migration of human primary monocytes towards MCP-1 ([2]; 8 μM VB-201, 30 min pre-treatment, MCP-1 50 ng/ml): significantly (P<0.05) reduced | migration of human primary monocytes towards MCP-3 ([2]; 8 μM VB-201, 30 min pre-treatment, MCP-3 50 ng/ml): significantly (P<0.05) reduced | migration of human primary monocytes towards MIP-1α ([2]; 8 μM VB-201, 30 min pre-treatment, MIP-1α 50 ng/ml): significantly (P<0.05) reduced | migration of human primary monocytes towards RANTES ([2]; 8 μM VB-201, 30 min pre-treatment, RANTES 100 ng/ml): significantly (P<0.05) reduced | dose dependence of inhibition of monocyte migration ([2]; in vitro, 1.7-17 μM): dose-dependent | safety and tolerability ([3]; enteric coated and non-coated capsules, 10 to 20 mg, fasting or fed): as safe and tolerable as placebo | serious or treatment-emergent adverse events ([3]; single dose 10-20 mg, coated and non-coated, fed and fasting): No serious or treatment-emergent adverse events occurred
